# Measured values: ChEMBL document CHEMBL4138123, “Design, synthesis and biological evaluation of novel pyrazolochalcones as potential modulators of PI3K/Akt/mTOR pathway and inducers of apoptosis in breast cancer cells” (Eur J Med Chem, 2017)
# Key:
# Assay type in all cases: functional
# MCF7 = experiment: Cytotoxicity against human MCF7 cells assessed as cell growth at 0.1 uM after 48 hrs by sulforhodamine B assay relative to control; settings: MCF7, 48 h, read-out: Activity
# TK-10 [1] = experiment: Cytotoxicity against human TK10 cells assessed as cell growth at 100 uM after 48 hrs by sulforhodamine B assay relative to control; settings: TK-10, 48 h, read-out: Activity
# M14 [2] = experiment: Cytotoxicity against human M14 cells assessed as cell growth at 0.1 uM after 48 hrs by sulforhodamine B assay relative to control; settings: M14, 48 h, read-out: Activity
# SF-539 = experiment: Cytotoxicity against human SF539 cells assessed as cell growth at 0.01 uM after 48 hrs by sulforhodamine B assay relative to control; settings: SF-539, 48 h, read-out: Activity
# ACHN [3] = experiment: Cytotoxicity against human ACHN cells assessed as growth inhibition after 48 hrs by sulforhodamine B assay
# SK-MEL-28 [4] = experiment: Cytotoxicity against human SK-MEL-28 cells assessed as cell growth at 0.1 uM after 48 hrs by sulforhodamine B assay relative to control; settings: SK-MEL-28, 48 h, read-out: Activity
# OVCAR-4 [5] = experiment: Cytotoxicity against human OVCAR4 cells assessed as cell growth at 0.1 uM after 48 hrs by sulforhodamine B assay relative to control; settings: OVCAR-4, 48 h, read-out: Activity
# OVCAR-3 [6] = experiment: Cytotoxicity against human OVCAR3 cells assessed as cell growth at 100 uM after 48 hrs by sulforhodamine B assay relative to control; settings: OVCAR-3, 48 h, read-out: Activity
# TK-10 [7] = experiment: Cytotoxicity against human TK10 cells assessed as cell growth at 0.1 uM after 48 hrs by sulforhodamine B assay relative to control; settings: TK-10, 48 h, read-out: Activity
# SK-MEL-5 [8] = experiment: Cytotoxicity against human SK-MEL-5 cells assessed as cell growth at 0.1 uM after 48 hrs by sulforhodamine B assay relative to control; settings: SK-MEL-5, 48 h, read-out: Activity
# OVCAR-5 [9] = experiment: Cytotoxicity against human OVCAR5 cells assessed as growth inhibition after 48 hrs by sulforhodamine B assay; settings: OVCAR-5, 48 h
# OVCAR-5 [10] = experiment: Cytotoxicity against human OVCAR5 cells assessed as cell growth at 10 uM after 48 hrs by sulforhodamine B assay relative to control; settings: OVCAR-5, 48 h, read-out: Activity
# T47D = experiment: Cytotoxicity against human T47D cells assessed as cell growth at 100 uM after 48 hrs by sulforhodamine B assay relative to control; settings: read-out: Activity
# SK-MEL-28 [11] = experiment: Cytotoxicity against human SK-MEL-28 cells assessed as growth inhibition after 48 hrs by sulforhodamine B assay; settings: SK-MEL-28, 48 h
# KM12 = experiment: Cytotoxicity against human KM12 cells assessed as cell growth at 0.1 uM after 48 hrs by sulforhodamine B assay relative to control; settings: KM12, 48 h, read-out: Activity
# Hs-578T [12] = experiment: Cytotoxicity against human Hs 578T cells assessed as cell growth at 10 uM after 48 hrs by sulforhodamine B assay relative to control; settings: read-out: Activity
# OVCAR-3 [13] = experiment: Cytotoxicity against human OVCAR3 cells assessed as cell growth at 10 uM after 48 hrs by sulforhodamine B assay relative to control; settings: OVCAR-3, 48 h, read-out: Activity
# Hs-578T [14] = experiment: Cytotoxicity against human Hs 578T cells assessed as cell growth at 0.01 uM after 48 hrs by sulforhodamine B assay relative to control; settings: read-out: Activity
# OVCAR-8 = experiment: Cytotoxicity against human OVCAR8 cells assessed as cell growth at 10 uM after 48 hrs by sulforhodamine B assay relative to control; settings: OVCAR-8, 48 h, read-out: Activity
# 786-0 [15] = experiment: Cytotoxicity against human 786-0 cells assessed as cell growth at 100 uM after 48 hrs by sulforhodamine B assay relative to control; settings: 786-0, 48 h, read-out: Activity
# MOLT-4 [16] = experiment: Cytotoxicity against human MOLT4 cells assessed as cell growth at 10 uM after 48 hrs by sulforhodamine B assay relative to control; settings: MOLT-4, 48 h, read-out: Activity
# IGROV-1 = experiment: Cytotoxicity against human IGROV1 cells assessed as growth inhibition after 48 hrs by sulforhodamine B assay; settings: IGROV-1, 48 h
# HCC 2998 = experiment: Cytotoxicity against human HCC2998 cells assessed as cell growth at 10 uM after 48 hrs by sulforhodamine B assay relative to control; settings: HCC 2998, 48 h, read-out: Activity
# 786-0 [17] = experiment: Cytotoxicity against human 786-0 cells assessed as cell growth at 0.01 uM after 48 hrs by sulforhodamine B assay relative to control; settings: 786-0, 48 h, read-out: Activity
# ACHN [18] = experiment: Cytotoxicity against human ACHN cells assessed as cell growth at 1 uM after 48 hrs by sulforhodamine B assay relative to control; settings: read-out: Activity
# M14 [19] = experiment: Cytotoxicity against human M14 cells assessed as cell growth at 0.01 uM after 48 hrs by sulforhodamine B assay relative to control; settings: M14, 48 h, read-out: Activity
# COLO 205 [20] = experiment: Cytotoxicity against human COLO205 cells assessed as cell growth at 100 uM after 48 hrs by sulforhodamine B assay relative to control; settings: COLO 205, 48 h, read-out: Activity
# OVCAR-4 [21] = experiment: Cytotoxicity against human OVCAR4 cells assessed as cell growth at 1 uM after 48 hrs by sulforhodamine B assay relative to control; settings: OVCAR-4, 48 h, read-out: Activity
# SR = experiment: Cytotoxicity against human SR cells assessed as cell growth at 10 uM after 48 hrs by sulforhodamine B assay relative to control; settings: read-out: Activity
# HT-29 = experiment: Cytotoxicity against human HT-29 cells assessed as cell growth at 0.1 uM after 48 hrs by sulforhodamine B assay relative to control; settings: HT-29, 48 h, read-out: Activity
# COLO 205 [22] = experiment: Cytotoxicity against human COLO205 cells assessed as cell growth at 0.01 uM after 48 hrs by sulforhodamine B assay relative to control; settings: COLO 205, 48 h, read-out: Activity
# PC-3 = experiment: Cytotoxicity against human PC3 cells assessed as cell growth at 0.01 uM after 48 hrs by sulforhodamine B assay relative to control; settings: PC-3, 48 h, read-out: Activity
# A549 = experiment: Cytotoxicity against human A549/ATCC cells assessed as cell growth at 1 uM after 48 hrs by sulforhodamine B assay relative to control; settings: A549, 48 h, read-out: Activity
# MOLT-4 [23] = experiment: Cytotoxicity against human MOLT4 cells assessed as cell growth at 0.01 uM after 48 hrs by sulforhodamine B assay relative to control; settings: MOLT-4, 48 h, read-out: Activity
# UACC-62 = experiment: Cytotoxicity against human UACC62 cells assessed as cell growth at 0.01 uM after 48 hrs by sulforhodamine B assay relative to control; settings: UACC-62, 48 h, read-out: Activity
# DU-145 = experiment: Cytotoxicity against human DU145 cells assessed as growth inhibition after 48 hrs by sulforhodamine B assay; settings: DU-145, 48 h; for CC50: read-out: LC50 (the source's name)
# SK-MEL-5 [24] = experiment: Cytotoxicity against human SK-MEL-5 cells assessed as cell growth at 0.01 uM after 48 hrs by sulforhodamine B assay relative to control; settings: SK-MEL-5, 48 h, read-out: Activity
smiles,measurement,setting,value
COc1ccc(-c2cc(/C=C/C(=O)c3ccc(N)cc3)[nH]n2)cc1,growth at 0.1 µM,MCF7,94%
same,growth at 100 µM,TK-10 [1],-91%
same,growth at 0.1 µM,M14 [2],103%
same,growth at 0.01 µM,SF-539,98%
same,GI50,ACHN [3],2010 nM
same,LC50,ACHN [3],49.2 µM
same,TGI,ACHN [3],10.6 µM
same,growth at 0.1 µM,SK-MEL-28 [4],91%
same,growth at 0.1 µM,OVCAR-4 [5],105%
same,growth at 100 µM,OVCAR-3 [6],-85%
same,growth at 0.1 µM,TK-10 [7],95%
same,growth at 0.1 µM,SK-MEL-5 [8],90%
same,GI50,OVCAR-5 [9],2060 nM
same,LC50,OVCAR-5 [9],16 µM
same,TGI,OVCAR-5 [9],4.92 µM
same,growth at 10 µM,OVCAR-5 [10],-41%
same,growth at 100 µM,T47D,-54%
same,GI50,SK-MEL-28 [11],1870 nM
same,LC50,SK-MEL-28 [11],8.57 µM
same,TGI,SK-MEL-28 [11],4.01 µM
same,growth at 0.1 µM,KM12,97%
same,growth at 10 µM,Hs-578T [12],22%
same,growth at 10 µM,OVCAR-3 [13],-70%
same,growth at 0.01 µM,Hs-578T [14],98%
same,growth at 10 µM,OVCAR-8,9%
same,growth at 100 µM,786-0 [15],-57%
same,growth at 10 µM,MOLT-4 [16],-2%
same,GI50,IGROV-1,2270 nM
same,LC50,IGROV-1,43.3 µM
same,TGI,IGROV-1,6.45 µM
same,growth at 10 µM,HCC 2998,-90%
same,growth at 0.01 µM,786-0 [17],96%
same,growth at 1 µM,ACHN [18],71%
same,growth at 0.01 µM,M14 [19],102%
same,growth at 100 µM,COLO 205 [20],-74%
same,growth at 1 µM,OVCAR-4 [21],52%
same,growth at 10 µM,SR,-12%
same,growth at 0.1 µM,HT-29,95%
same,growth at 0.01 µM,COLO 205 [22],97%
same,growth at 0.01 µM,PC-3,95%
same,growth at 1 µM,A549,84%
same,growth at 0.01 µM,MOLT-4 [23],97%
same,growth at 0.01 µM,UACC-62,96%
same,GI50,DU-145,1320 nM
same,TGI,DU-145,3.46 µM
same,CC50,DU-145,9.11 µM
same,growth at 0.01 µM,SK-MEL-5 [24],97%
COc1cc(C(=O)/C=C/c2cc(-c3ccc4c(c3)OCO4)n[nH]2)cc(OC)c1OC,growth at 0.1 µM,MCF7,94%
same,growth at 100 µM,TK-10 [1],-96%
same,growth at 0.1 µM,M14 [2],93%
same,growth at 0.01 µM,SF-539,101%
same,GI50,ACHN [3],2200 nM
same,LC50,ACHN [3],18.8 µM
same,TGI,ACHN [3],4.95 µM
same,growth at 0.1 µM,SK-MEL-28 [4],99%
same,growth at 0.1 µM,OVCAR-4 [5],94%
same,growth at 100 µM,OVCAR-3 [6],-97%
same,growth at 0.1 µM,TK-10 [7],92%
same,growth at 0.1 µM,SK-MEL-5 [8],95%
same,GI50,OVCAR-5 [9],2630 nM
same,LC50,OVCAR-5 [9],76.8 µM
same,TGI,OVCAR-5 [9],9.6 µM
same,growth at 10 µM,OVCAR-5 [10],-2%
same,growth at 100 µM,T47D,-87%
same,GI50,SK-MEL-28 [11],1920 nM
same,LC50,SK-MEL-28 [11],9.13 µM
same,TGI,SK-MEL-28 [11],4.18 µM
same,growth at 0.1 µM,KM12,93%
same,growth at 10 µM,Hs-578T [12],10%
same,growth at 10 µM,OVCAR-3 [13],-73%
same,growth at 0.01 µM,Hs-578T [14],92%
same,growth at 10 µM,OVCAR-8,-23%
same,growth at 100 µM,786-0 [15],-83%
same,growth at 10 µM,MOLT-4 [16],-8%
same,GI50,IGROV-1,1990 nM
same,LC50,IGROV-1,23.4 µM
same,TGI,IGROV-1,5.72 µM
same,growth at 10 µM,HCC 2998,-64%
same,growth at 0.01 µM,786-0 [17],99%
same,growth at 1 µM,ACHN [18],99%
same,growth at 0.01 µM,M14 [19],98%
same,growth at 100 µM,COLO 205 [20],-74%
same,growth at 1 µM,OVCAR-4 [21],47%
same,growth at 10 µM,SR,-19%
same,growth at 0.1 µM,HT-29,97%
same,growth at 0.01 µM,COLO 205 [22],100%
same,growth at 0.01 µM,PC-3,97%
same,growth at 1 µM,A549,85%
same,growth at 0.01 µM,MOLT-4 [23],97%
same,growth at 0.01 µM,UACC-62,96%
same,GI50,DU-145,2920 nM
same,TGI,DU-145,9.16 µM
same,CC50,DU-145,31.4 µM
same,growth at 0.01 µM,SK-MEL-5 [24],99%
